Source: PMC7465344 (Pharmaceuticals, 2020)
Several values for one entry are separate records, joined by “and”; a condition that tells them apart may be missing. Identical values can stand only once. Like-named read-outs stand apart in the source and are kept apart here.

What was measured:
hA3 AR = target: T1, hA3 AR (Homo sapiens, UniProt P0DMS8); test: Competition binding of [125I]AB-MECA to hA3 AR in CHO cell membranes; details: for inhibition at 10 µM: read-out: hA3AR percentage of inhibition (I%)
T1 sequence (P0DMS8 1-318): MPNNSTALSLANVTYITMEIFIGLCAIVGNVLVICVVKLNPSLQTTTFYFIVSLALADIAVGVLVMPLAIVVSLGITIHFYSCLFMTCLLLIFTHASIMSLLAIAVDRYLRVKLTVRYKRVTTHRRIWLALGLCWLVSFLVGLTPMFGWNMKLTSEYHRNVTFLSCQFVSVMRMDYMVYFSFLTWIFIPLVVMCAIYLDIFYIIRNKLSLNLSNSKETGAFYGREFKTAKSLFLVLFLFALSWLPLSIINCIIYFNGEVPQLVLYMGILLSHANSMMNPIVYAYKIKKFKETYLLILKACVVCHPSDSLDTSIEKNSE
Description: (§1) For membrane preparation, the cells were washed with phosphate-buffered saline and scraped off T75 flasks in an ice-cold hypotonic buffer (5 mMTris-HCl, 1 mM EDTA, pH 7.4). The cell suspensions were homogenized with a Polytron, centrifuged for 30 min at 40,000× g at 4 °C and the resulting membrane pellets were used for competition binding experiments [44].
(§2) Non-specific binding was defined as binding in the presence of 1 μM DPCPX and was always <10% of the total binding [44]. […] Non-specific binding was defined as binding in the presence of 1 μM ABMECA and was always < 10% of the total binding [46]. Bound and free radioactivity were separated by filtering the assay mixture through Whatman GF/B glass fiber filters using a Brandel cell harvester (Brandel Instruments, Unterföhring, Germany).
(§3) The protein concentration was determined according to a Bio-Rad method with bovine albumin as a standard reference. […] Ki and IC50 values were calculated by the non-linear regression analysis using the equation for a sigmoid concentration-response curve (Graph-PAD Prism, San Diego, CA, USA).

hA2A AR [1] = target: T2, hA2A AR (Homo sapiens, UniProt P29274); test: Competition binding of [3H]ZM241385 to hA2A AR in CHO cell membranes
Description: as §1, §2, §3

hA2B AR = target: T3, hA2B AR (Homo sapiens, UniProt P29275); test: Inhibition of NECA stimulated adenylyl cyclase activity (cAMP assay) in CHO cells expressing hA2B receptor; format: cell-based; details: for inhibition at 10 µM: CHO, at 10 μM of tested compound, cAMP assay, read-out: hA2BAR percentage of inhibition (I%); for IC50: NECA stimulated cAMP, hA2B CHO cells, read-out: hA2BAR IC50 (potency in cAMP assay)
T3 construct: expressed in transfected cells; host or cells: CHO cells
T3 sequence (P29275 1-332): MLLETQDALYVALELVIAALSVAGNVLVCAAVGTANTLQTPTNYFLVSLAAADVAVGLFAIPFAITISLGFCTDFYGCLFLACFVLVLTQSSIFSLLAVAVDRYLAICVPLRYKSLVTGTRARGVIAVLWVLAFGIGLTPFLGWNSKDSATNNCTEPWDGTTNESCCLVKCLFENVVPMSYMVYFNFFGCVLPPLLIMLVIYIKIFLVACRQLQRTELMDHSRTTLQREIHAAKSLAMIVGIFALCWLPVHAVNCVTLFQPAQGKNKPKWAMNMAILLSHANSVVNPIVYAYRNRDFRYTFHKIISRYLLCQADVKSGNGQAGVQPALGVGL
Source text: At the end of the experiments, plates were read with the Perkin Elmer EnSight Multimode Plate Reader.

hA1 AR = target: T4, hA1 AR (Homo sapiens, UniProt P30542); test: Competition binding of [3H]DPCPX to hA1 AR in CHO cell membranes; details: for hA1AR Ki: displacement of [3H]DPCPX, CHO cells, mean ± SEM, n = 3–6; for inhibition at 10 µM: read-out: hA1AR percentage of inhibition (I%)
T4 sequence (P30542 1-326): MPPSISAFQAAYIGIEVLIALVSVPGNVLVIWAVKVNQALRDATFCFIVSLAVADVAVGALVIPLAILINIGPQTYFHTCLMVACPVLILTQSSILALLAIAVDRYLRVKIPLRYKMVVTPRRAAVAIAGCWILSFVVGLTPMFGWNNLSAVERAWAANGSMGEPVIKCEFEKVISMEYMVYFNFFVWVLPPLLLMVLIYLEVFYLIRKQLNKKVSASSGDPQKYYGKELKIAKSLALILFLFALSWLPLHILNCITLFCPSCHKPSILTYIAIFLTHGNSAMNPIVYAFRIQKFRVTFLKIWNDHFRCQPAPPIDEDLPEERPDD
Description: as §1, §2, §3

hA2A AR [2] = target: T2, hA2A AR; test: Cyclic AMP assay in CHO cells expressing hA2A AR (modulation of basal cAMP); details: for Pharmacological Behavior / Intrinsic Activity: cyclic AMP assay, hA2A CHO cells; for Intrinsic Activity: mean ± SEM
Description: CHO cells transfected with hAR subtypes were washed with phosphate-buffered saline, detached with trypsin, and centrifuged for 10 min at 200× g. […] At the end of the experiments, plates were read with the Perkin Elmer EnSight Multimode Plate Reader.
Ki and IC50 values were calculated by the non-linear regression analysis using the equation for a sigmoid concentration-response curve (Graph-PAD Prism, San Diego, CA, USA).

T2 sequence (P29274 whole entry): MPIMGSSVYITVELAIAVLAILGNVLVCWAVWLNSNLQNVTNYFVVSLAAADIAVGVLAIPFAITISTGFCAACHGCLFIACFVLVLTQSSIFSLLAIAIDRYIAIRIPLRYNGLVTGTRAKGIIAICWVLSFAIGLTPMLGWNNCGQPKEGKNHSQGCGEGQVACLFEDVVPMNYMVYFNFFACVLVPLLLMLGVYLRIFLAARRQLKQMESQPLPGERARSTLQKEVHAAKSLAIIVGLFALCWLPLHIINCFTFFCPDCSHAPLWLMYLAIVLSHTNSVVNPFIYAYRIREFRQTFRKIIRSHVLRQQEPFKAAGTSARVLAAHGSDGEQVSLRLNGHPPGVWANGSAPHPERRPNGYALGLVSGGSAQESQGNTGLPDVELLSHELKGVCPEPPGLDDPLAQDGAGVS

Row | Structure (SMILES) | Ki (hA3 AR) [µM] | inhibition at 10 µM (hA3 AR) [%] | Ki (hA2A AR [1]) [nM] | inhibition at 10 µM (hA2B AR) [%] | IC50 (hA2B AR) [µM] | melting point [°C] | Ki (hA1 AR) [nM] | hA1AR Ki (hA1 AR) | IC50 (hA2A AR [2]) [nM] | Pharmacological Behavior (hA2A AR [2]) | Intrinsic Activity (hA2A AR [2]) | inhibition at 10 µM (hA2A AR [1]; read-out: hA2AAR percentage of inhibition (I%)) [%] | inhibition at 10 µM (hA1 AR) [%] | Ki (hA2A AR [1]; read-out: hA2AAR Ki, displacement of [3H]ZM241385, CHO cells, mean ± SEM, n = 3–6) | Ki (hA3 AR; read-out: hA3AR Ki, displacement of [125I]AB-MECA, CHO cells, mean ± SEM, n = 3–6) [µM]
1 | Nc1nc(N2CCC(Cc3ccccc3)CC2)nc2sc(-c3ccco3)nc12 [compound 1, 5-(4-Benzylpiperidin-1-yl)-2-(furan-2yl)thiazolo[5,4-d]pyrimidin-7-amine] | > 10 | 8 | 594 ± 48 | 21 | > 10 | 197 to 199 | 586 ± 37 | – | – | – | – | – | – | – | –
2 | Nc1nc(NCCN2CCN(c3ccccc3)CC2)nc2sc(-c3ccco3)nc12 [compound 11, 2-(Furan-2-yl)-N^5-(2-(4-phenylpiperazin-1-yl)ethyl)thiazolo[5,4-d]pyrimidine-5,7-diamine] | > 10 | 15 | – | 13 | > 10 | – | 102 ± 9 | good affinities | 7.42 ± 0.68 | Inverse agonist | −52 ± 4 | – | – | 8.6 nM and 8.62 nM | –
3 | Nc1nc(N2CCN(CCN3CCCC3)CC2)nc2sc(-c3ccco3)nc12 [compound 8, 2-(Furan-2-yl)-5-(4-(2-(pyrrolidin-1-yl)ethyl)piperazin-1-yl)thiazolo[5,4-d]pyrimidin-7-amine] | > 10 | 25 | – | 19 | > 10 | – | 638 ± 56 | – | – | – | – | – | – | – | –
4 | COCCN1CCC(CNc2nc(N)c3nc(-c4ccco4)sc3n2)CC1 [compound 18, 2-(Furan-2-yl)-N^5-((1-(2-methoxyethyl)piperidin-4-yl)methyl)thiazolo[5,4-d]pyrimidine-5,7-diamine] | > 10 | 28 | 802 ± 73 | 11 | > 10 | – | 524 ± 41 | – | – | – | – | – | – | – | –
5 | Nc1nc(NCC2CCN(CCc3ccccc3)CC2)nc2sc(-c3ccco3)nc12 [compound 21, 2-(Furan-2-yl)-N^5-((1-phenethylpiperidin-4-yl)methyl)thiazolo[5,4-d]pyrimidine-5,7-diamine] | > 10 | 21 | 483 ± 34 | 27 | > 10 | – | 247 ± 18 | – | – | – | – | – | – | – | –
6 | CCOC(=O)c1ccc(N2CCN(CCNc3nc(N)c4nc(-c5ccco5)sc4n3)CC2)cc1 [compound 16, Ethyl 4-(4-(2-((7-amino-2-(furan-2-yl)thiazolo[5,4-d]pyrimidin-5-yl)amino)ethyl)piperazin-1-yl) benzoate] | > 10 | 34 | 264 ± 24 | 26 | > 10 | – | > 10000 | – | – | – | – | – | 31 | – | –
7 | Nc1nc(NCCN2CCC(Cc3ccccc3)CC2)nc2sc(-c3ccco3)nc12 [compound 10, N^5-(2-(4-Benzylpiperidin-1-yl)ethyl)-2-(furan-2-yl)thiazolo[5,4-d]pyrimidine-5,7-diamine] | > 10 | 22 | 187 ± 16 | 22 | > 10 | 155 to 157 | 725 ± 67 | – | – | – | – | – | – | – | –
8 | Nc1nc(N2CCN(c3ccccc3)CC2)nc2sc(-c3ccco3)nc12 [compound 2, 2-(Furan-2-yl)-5-(4-phenylpiperazin-1-yl)thiazolo[5,4-d]pyrimidin-7-amine] | > 10 | 18 | – | 15 | > 10 | – | 296 ± 22 | – | – | – | – | – | – | – | –
9 | Nc1nc(NCCc2ccc(O)cc2)nc2nc(-c3ccco3)nn12 [ZM 241385, reference compound] | – | – | – | – | – | – | – | – | – | – | – | – | – | – | 0.672 ± 0.051
10 | Nc1nc(NCCN2CCN(C(=O)c3ccco3)CC2)nc2sc(-c3ccco3)nc12 [compound 15, (4-(2-((7-Amino-2-(furan-2-yl)thiazolo[5,4-d]pyrimidin-5-yl)amino)ethyl)piperazin-1-yl)(furan-2-yl)methanone] | > 10 | 23 | 10.8 ± 1 | 16 | > 10 | – | 436 ± 36 | – | 9.42 ± 0.87 | Inverse agonist | −67 ± 5 | – | – | – | –

The remaining lines, values ahead:

Row | Ki (hA3 AR) [µM] | inhibition at 10 µM (hA3 AR) [%] | Ki (hA2A AR [1]) [nM] | inhibition at 10 µM (hA2B AR) [%] | IC50 (hA2B AR) [µM] | melting point [°C] | Ki (hA1 AR) [nM] | hA1AR Ki (hA1 AR) | IC50 (hA2A AR [2]) [nM] | Pharmacological Behavior (hA2A AR [2]) | Intrinsic Activity (hA2A AR [2]) | inhibition at 10 µM (hA2A AR [1]; read-out: hA2AAR percentage of inhibition (I%)) [%] | inhibition at 10 µM (hA1 AR) [%] | Ki (hA2A AR [1]; read-out: hA2AAR Ki, displacement of [3H]ZM241385, CHO cells, mean ± SEM, n = 3–6) | Ki (hA3 AR; read-out: hA3AR Ki, displacement of [125I]AB-MECA, CHO cells, mean ± SEM, n = 3–6) [µM] | Structure (SMILES)
11 | > 10 | 29 | 88 ± 9 | 24 | > 10 | 182 to 183 | 152 ± 11 | good affinities | – | – | – | – | – | – | – | COc1ccc(CN2CCC(CNc3nc(N)c4nc(-c5ccco5)sc4n3)CC2)cc1 [compound 20, 2-(Furan-2-yl)-N^5-((1-(4-methoxybenzyl)piperidin-4-yl)methyl)thiazolo[5,4-d]pyrimidine-5,7-diamine]
12 | > 10 | 35 | 15.2 ± 1.7 | 18 | > 10 | – | 365 ± 29 | – | 14.8 ± 1.4 | Inverse agonist | −64 ± 4 | – | – | – | – | Nc1nc(NCC2CCN(Cc3ccccc3)CC2)nc2sc(-c3ccco3)nc12 [compound 19, N^5-((1-Benzylpiperidin-4-yl)methyl)-2-(furan-2-yl)thiazolo[5,4-d]pyrimidine-5,7-diamine]
13 | > 10 | 28 | > 10000 | 17 | > 10 | – | > 10000 | – | – | – | – | 33 | 29 | – | – | CCOC(=O)c1ccc(CNc2nc(N)c3nc(-c4ccco4)sc3n2)cc1 [compound 17, Ethyl 4-(((7-amino-2-(furan-2-yl)thiazolo[5,4-d]pyrimidin-5-yl)amino)methyl)benzoate]
14 | > 10 | 33 | 37 ± 3 | 29 | > 10 | – | 522 ± 47 | – | – | – | – | – | – | – | – | Nc1nc(NCCN2CCN(CCc3ccccc3)CC2)nc2sc(-c3ccco3)nc12 [compound 13, 2-(Furan-2-yl)-N^5-(2-(4-phenethylpiperazin-1-yl)ethyl)thiazolo[5,4-d]pyrimidine-5,7-diamine]
15 | 0.197 ± 0.016 | – | 237 ± 17 | 11 | > 10 | 203 to 204 | 1210 ± 114 | – | – | – | – | – | – | – | – | Nc1nc(N2CCN(CCc3ccccc3)CC2)nc2sc(-c3ccco3)nc12 [compound 4, 2-(Furan-2-yl)-5-(4-phenethylpiperazin-1-yl)thiazolo[5,4-d]pyrimidin-7-amine]
16 | 0.127 ± 0.015 | – | 326 ± 27 | 7 | > 10 | – | 2350 ± 213 | – | – | – | – | – | – | – | – | COCCOc1ccc(N2CCN(c3nc(N)c4nc(-c5ccco5)sc4n3)CC2)cc1 [compound 5, 2-(Furan-2-yl)-5-(4-(4-(2-methoxyethoxy)phenyl)piperazin-1-yl)thiazolo[5,4-d]pyrimidin-7-amine]
17 | 1.49 ± 0.126 | – | 18.3 ± 1.9 | 17 | > 10 | – | 452 ± 38 | – | 15.2 ± 1.3 | Inverse agonist | −51 ± 5 | – | – | – | – | COCCOc1ccc(N2CCN(CCNc3nc(N)c4nc(-c5ccco5)sc4n3)CC2)cc1 [compound 14, 2-(Furan-2-yl)-N^5-(2-(4-(4-(2-methoxyethoxy)phenyl)piperazin-1-yl)ethyl)thiazolo[5,4-d]pyrimidine-5,7-diamine]
